≈ marks a conversion by molar mass, not a printed value. Calls of active or inactive are those of the source. No cut-off for these calls is given here. Residues, ends and D or L forms follow the SMILES beside them. *: point of attachment. Myristoyl = CCCCCCCCCCCCCC(=O)*; Lauroyl = CCCCCCCCCCCC(=O)*
What was measured:
Cell membrane [1] = assay: Induction of membrane disruption in Staphylococcus aureus ATCC 25923 measured after 2 hrs by propidium iodide staining based confocal laser scanning microscopic analysis; format: subcellular
Staphylococcus aureus [2] = assay: Antimicrobial activity against methicillin-resistant Staphylococcus aureus 113 measured after 18 hrs in presence of polymyxin B by checkerboard assay; format: functional, organism-based
[3] = tested on: Staphylococcus epidermidis; assay: Antimicrobial activity against ciprofloxacin-resistant Staphylococcus epidermidis ATCC 12228 after 18 hrs by broth microdilution method; format: functional, organism-based
Staphylococcus aureus [4] = assay: Antimicrobial activity against Staphylococcus aureus ATCC 25923 after 18 hrs in presence of CaCl2 by broth microdilution method; format: functional
Staphylococcus aureus [5] = assay: Ratio of MIC for antimicrobial activity against Staphylococcus aureus ATCC 25923 in presence of 10% serum to MIC for antimicrobial activity against Staphylococcus aureus ATCC 25923 in absence of serum; format: functional
Staphylococcus aureus [6] = assay: Antimicrobial activity against Staphylococcus aureus ATCC 29213 after 18 hrs by broth microdilution method; format: functional
Staphylococcus aureus [7] = assay: Potentiation of ciprofloxacin-induced antimicrobial activity against methicillin-resistant Staphylococcus aureus 75 assessed as change in ciprofloxacin MIC at 2 uM after 18 hrs by broth microdilution method relative to ciprofloxacin MIC; format: functional
Staphylococcus aureus [8] = assay: Antibiofilm activity against ciprofloxacin-resistant Staphylococcus aureus ATCC 25923 at 0.5 to 8 uM after 24 hrs by crystal violet staining based assay; format: functional, organism-based; conditions: dose 0.5-8 µM
Staphylococcus aureus [9] = assay: Antibiofilm activity against ciprofloxacin-resistant Staphylococcus aureus ATCC 25923 at 0.5 to 8 uM after 24 hrs in presence of ciprofloxacin by checkerboard assay; format: functional, organism-based; conditions: dose 0.5-8 µM
Cell membrane [10] = assay: Induction of membrane disruption in Staphylococcus aureus ATCC 25923 assessed as cell lysis at 4 times MIC measured after 2 to 4 hrs by SEM analysis; format: subcellular; conditions: time 2-4 hrs
Staphylococcus aureus [11] = assay: Antimicrobial activity against ciprofloxacin-resistant Staphylococcus aureus ATCC 25923 at 0.5 to 8 uM measured after 18 hrs in presence of ciprofloxacin by checkerboard assay; format: functional, organism-based; conditions: dose 0.5-8 µM
Staphylococcus aureus [12] = assay: Potentiation of ciprofloxacin-induced antimicrobial activity against ciprofloxacin-resistant Staphylococcus aureus ATCC 25923 at 1 uM after 18 hrs by broth microdilution method; format: functional, organism-based
Bacillus subtilis = assay: Antimicrobial activity against Bacillus subtilis ATCC 23857 after 18 hrs by broth microdilution method; format: functional
Staphylococcus aureus [13] = assay: Antibiofilm activity against Staphylococcus aureus ATCC 25923 preformed biofilm assessed as preformed biofilm thickness at 32 uM after 24 hrs using LIVE/LEAD (SYTO-9/PI) staining by confocal laser scanning microscopy based 3D image analysis (reference value: 56 micrometer); format: functional
Staphylococcus aureus [14] = assay: Antimicrobial activity against methicillin-resistant Staphylococcus aureus 75 measured after 18 hrs in presence of polymyxin B by checkerboard assay; format: functional, organism-based
Staphylococcus aureus [15] = assay: Potentiation of ciprofloxacin-induced antimicrobial activity against Staphylococcus aureus ATCC 25923 at 0.5 times MIC after 15 passages by broth microdilution method; format: functional, organism-based
Staphylococcus aureus [16] = assay: Antimicrobial activity against Staphylococcus aureus ATCC 25923 after 18 hrs in presence of NH4Cl by broth microdilution method; format: functional
Cell membrane [17] = assay: Induction of membrane disruption in Staphylococcus aureus ATCC 25923 assessed as PI-positive cells at 2 times MIC measured after 2 hrs by propidium iodide staining based flow cytometry relative to control
Staphylococcus aureus [18] = assay: Antimicrobial activity against Staphylococcus aureus ATCC 25923 after 18 hrs in presence of MgCl2 by broth microdilution method; format: functional
[19] = tested on: Staphylococcus epidermidis; assay: Antimicrobial activity against Staphylococcus epidermidis ATCC 12228 after 18 hrs in presence of polymyxin B by checkerboard assay; format: functional, organism-based
Staphylococcus aureus [20] = assay: Antimicrobial activity against Staphylococcus aureus ATCC 25923 after 18 hrs in presence of KCl by broth microdilution method; format: functional
Staphylococcus aureus [21] = assay: Antibiofilm activity against Staphylococcus aureus ATCC 25923 assessed as biofilm thickness at 4 uM after 24 hrs using LIVE/LEAD (SYTO-9/PI) staining by confocal laser scanning microscopy based 3D image analysis (reference value: 55 micrometer); format: functional
Staphylococcus aureus [22] = assay: Antimicrobial activity against methicillin-resistant Staphylococcus aureus 75 after 18 hrs by broth microdilution method; format: functional
Staphylococcus aureus [23] = assay: Antibiofilm activity against Staphylococcus aureus ATCC 25923 preformed biofilm assessed as preformed biofilm thickness at 64 uM after 24 hrs using LIVE/LEAD (SYTO-9/PI) staining by confocal laser scanning microscopy based 3D image analysis (reference value: 56 micrometer); format: functional
Staphylococcus aureus [24] = assay: Potentiation of ciprofloxacin-induced antimicrobial activity against ciprofloxacin-resistant Staphylococcus aureus ATCC 25923 assessed as change in ciprofloxacin MIC at 2 uM after 18 hrs by broth microdilution method relative to ciprofloxacin MIC; format: functional
Staphylococcus aureus [25] = assay: Antimicrobial activity against Staphylococcus aureus ATCC 25923 after 18 hrs in presence of polymyxin B by checkerboard assay; format: functional, organism-based
Staphylococcus aureus [26] = assay: Antimicrobial activity against ciprofloxacin-resistant Staphylococcus aureus ATCC 25923 at 0.5 to 8 uM measured after 18 hrs in presence of EtBr by checkerboard assay; format: functional, organism-based; conditions: dose 0.5-8 µM
Staphylococcus aureus [27] = assay: Antimicrobial activity against Staphylococcus aureus ATCC 25923 after 18 hrs in presence of NaCl by broth microdilution method; format: functional
[28] = Binding affinity to LTA (unknown origin) assessed as bacterial killing at 2 times MIC preincubated for 1 hr followed by Staphylococcus aureus ATCC 25923 addition and measured after 2 hrs by colony counting method; conditions: time 3.0 hrs
[29] = tested on: Staphylococcus epidermidis; assay: Antimicrobial activity against Staphylococcus epidermidis ATCC 12228 at 0.5 times MIC after 15 passages by broth microdilution method; format: functional, organism-based
Cell membrane [30] = assay: Induction of membrane disruption in Staphylococcus aureus ATCC 25923 assessed as appearance of rough membrane at 2 to 4 times MIC measured after 2 to 4 hrs by SEM analysis; format: subcellular; conditions: time 2-4 hrs
Erythrocyte = assay: Hemolytic activity against mouse erythrocytes measured after 1 hr; format: ADME, cell-based
Staphylococcus aureus [31] = assay: Potentiation of ciprofloxacin-induced antimicrobial activity against ciprofloxacin-resistant Staphylococcus aureus ATCC 25923 assessed as ciprofloxacin MIC at 0.5 times MIC after 15 passages by broth microdilution method; format: functional
Lipopolysaccharide (LPS) = assay: Binding affinity to LPS (unknown origin) assessed as bacterial killing at 2 times MIC preincubated for 1 hr followed by Staphylococcus aureus ATCC 25923 addition and measured after 2 hrs by colony counting method; conditions: time 3.0 hrs
Staphylococcus aureus [32] = assay: Antimicrobial activity against methicillin-resistant Staphylococcus aureus 75 at 0.5 to 8 uM measured after 18 hrs in presence of ciprofloxacin by checkerboard assay; format: functional, organism-based; conditions: dose 0.5-8 µM
Cell membrane [33] = assay: Induction of membrane disruption in Staphylococcus aureus ATCC 25923 assessed as irregular atrophy at 2 to 4 times MIC measured after 2 to 4 hrs by SEM analysis; format: subcellular; conditions: time 2-4 hrs
Cell membrane [34] = assay: Induction of membrane disruption in Staphylococcus aureus ATCC 25923 assessed as membrane blebbing at 2 to 4 times MIC measured after 2 to 4 hrs by SEM analysis; format: subcellular; conditions: time 2-4 hrs
[35] = tested on: Staphylococcus epidermidis; assay: Potentiation of ciprofloxacin-induced antimicrobial activity against ciprofloxacin-resistant Staphylococcus epidermidis ATCC 12228 assessed as ciprofloxacin MIC at 0.5 times MIC after 15 passages by broth microdilution method; format: functional

| Structure (SMILES) | Activity (Cell membrane [1]) | Activity (Staphylococcus aureus [2]) | Activity [3] | MIC (Staphylococcus aureus [4]) [µM] | Ratio (Staphylococcus aureus [5]) | MIC (Staphylococcus aureus [6]) [µM] | fold change (FC) (Staphylococcus aureus [7]) | Activity (Staphylococcus aureus [8]) | Activity (Staphylococcus aureus [9]) | Activity (Cell membrane [10]) | Activity (Staphylococcus aureus [11]) | Activity (Staphylococcus aureus [12]) | MIC (Bacillus subtilis) [µM] | Activity (Staphylococcus aureus [13]) [um] | Activity (Staphylococcus aureus [14]) | Activity (Staphylococcus aureus [15]) | MIC (Staphylococcus aureus [16]) [µM] | Activity (Cell membrane [17]) [%] | MIC (Staphylococcus aureus [18]) [µM] | Activity [19] | further results |
| --- | --- | --- | --- | --- | --- | --- | --- | --- | --- | --- | --- | --- | --- | --- | --- | --- | --- | --- | --- | --- | --- |
| CCCCCCCCCCCC(=O)N[C@@H](CCCNC(=N)N)C(=O)N[C@@H](CCCNC(=N)N)C(=O)N[C@@H](Cc1c[nH]c2ccccc12)C(N)=O (Lauroyl-Arg-Arg-Trp-NH2) | Dose-dependent effect | Active | Active | 16 | 8 | 4 (≈ 2.79 µg/mL) | 2 | Active | Active | Active | Active | inactive | 4 (≈ 2.79 µg/mL) | 30 | Active | Active | 4 | 44.3 | 8 | Active | MIC (Staphylococcus aureus [20]): 8 µM; Activity (Staphylococcus aureus [21]): 24 um; MIC (Staphylococcus aureus [22]): 4 µM (≈ 2.79 µg/mL); Activity (Staphylococcus aureus [23]): 40 um; fold change (FC) (Staphylococcus aureus [24]): 2; Activity (Staphylococcus aureus [25]): Active; Activity (Staphylococcus aureus [26]): Active; MIC (Staphylococcus aureus [27]): 16 µM; Activity [28]: Active; Activity [29]: Active; Activity (Cell membrane [30]): Active; MHC10 (Erythrocyte): 128 µM; MIC (Staphylococcus aureus [31]): 8 µM; Activity (Lipopolysaccharide (LPS)): Active; Activity (Staphylococcus aureus [32]): Active; Activity (Cell membrane [33]): Active; Activity (Cell membrane [34]): Active; MIC [35]: 8 µM |
| CCCCCCCCCCCCCC(=O)N[C@@H](CCCNC(=N)N)C(=O)N[C@@H](Cc1c[nH]c2ccccc12)C(=O)N[C@@H](Cc1c[nH]c2ccccc12)C(N)=O (Myristoyl-Arg-Trp-Trp-NH2) | Dose-dependent effect | Active | Active | 8 | 2 | 8 (≈ 6.05 µg/mL) | 2 | Active | Active | Active | Active | inactive | 4 (≈ 3.02 µg/mL) | 40 | Active | Active | 4 | 74.8 | 4 | Active | MIC (Staphylococcus aureus [20]): 8 µM; Activity (Staphylococcus aureus [21]): 30 um; MIC (Staphylococcus aureus [22]): 4 µM (≈ 3.02 µg/mL); Activity (Staphylococcus aureus [23]): 24 um; fold change (FC) (Staphylococcus aureus [24]): 2; Activity (Staphylococcus aureus [25]): Active; Activity (Staphylococcus aureus [26]): Active; MIC (Staphylococcus aureus [27]): 8 µM; Activity [28]: Active; Activity [29]: Active; Activity (Cell membrane [30]): Active; MHC10 (Erythrocyte): > 256 µM; MIC (Staphylococcus aureus [31]): 8 µM; Activity (Lipopolysaccharide (LPS)): Active; Activity (Staphylococcus aureus [32]): Active; Activity (Cell membrane [33]): Active; Activity (Cell membrane [34]): Active; MIC [35]: 8 µM |
